Experiment [1] deals with NRRL 15878. Description: Resistance to antibiotics, sensitivity discs on seeded agar. In kind it is cell-based, Actinomadura oligospora. As to the method: (§1) Resistance to antibiotics was measured by padding antibiotic sensitivity discs onto the surface of seeded ISP No. 2 agar plates.
(§2) Table III lists the resistance of the strain to various antibiotics at the concentrations indicated and compares it to that of A. macra.

Experiment [2] has as its system A. macra. The experiment is described as above. In kind it is cell-based, Actinomadura macra. Here is the method:
as §1, §2

Where a SMILES comes first, the peptide text is derived from it. Bridges are numbered along the chain shown (N, C = ends). [ ]: non-standard residue; d: D form. The star is where a group is joined. Ileψ(thiazoline)Cys = CC[C@H](C)[C@H](N)C1=N[C@H](C(=O)*)CS1; dOrn = NCCC[C@@H](N)C(=O)O

On to Tetracycline, for which the “Resistance to Antibiotics” value in experiment [1] (30 μg) and in experiment [2] (30 μg) was “-” in each case.
`CN[C@H](CC(C)C)C(=O)N[C@H]1C(=O)N[C@@H](CC(N)=O)C(=O)N[C@H]2C(=O)N[C@H]3C(=O)N[C@H](C(=O)N[C@H](C(=O)O)c4cc(O)cc(O)c4-c4cc3ccc4O)[C@H](O)c3ccc(c(Cl)c3)Oc3cc2cc(c3O[C@@H]2O[C@H](CO)[C@@H](O)[C@H](O)[C@H]2O[C@H]2C[C@](C)(N)[C@H](O)[C@H](C)O2)Oc2ccc(cc2Cl)[C@H]1O` [Vancomycin]: the “Resistance to Antibiotics” value in experiment [1] (30 μg) and in experiment [2] (30 μg) was “-” in each case.
Consider `CC1(C)S[C@@H]2[C@H](NC(=O)Cc3ccccc3)C(=O)N2[C@H]1C(=O)O` [Pencillin G], for which the “Resistance to Antibiotics” value in experiment [1] (10 units) and in experiment [2] (10 units) was “+” each time.
In the case of `CN[C@@H]1[C@H](O[C@H]2[C@H](O[C@H]3[C@H](O)[C@@H](O)[C@H](N=C(N)N)[C@@H](O)[C@@H]3N=C(N)N)O[C@@H](C)[C@]2(O)C=O)O[C@@H](CO)[C@H](O)[C@H]1O` [Streptocmycin], the “Resistance to Antibiotics” value in experiment [1] (10 μg) is “-”; in experiment [2] (10 μg) it was “+”.
Regarding `CC[C@H](C)[C@H](N)C1=N[C@H](C(=O)N[C@@H](CC(C)C)C(=O)N[C@H](CCC(=O)O)C(=O)N[C@H](C(=O)N[C@H]2CCCCNC(=O)[C@H](CC(N)=O)NC(=O)[C@@H](CC(=O)O)NC(=O)[C@H](Cc3cnc[nH]3)NC(=O)[C@@H](Cc3ccccc3)NC(=O)[C@H]([C@@H](C)CC)NC(=O)[C@@H](CCCN)NC2=O)[C@@H](C)CC)CS1` [Bacitracin] ({Ileψ(thiazoline)Cys}-L[dE]IK[dOrn]I[dF]H[dD]N; lactam 4-C), the “Resistance to Antibiotics” value in experiment [1] (10 units) was “+”; in experiment [2] (10 units) it was “-”.
For the compound `CC(=O)OCC1=C(C(=O)O)N2C(=O)[C@@H](NC(=O)Cc3cccs3)[C@H]2SC1` [Cephalothin], the “Resistance to Antibiotics” value in experiment [2] (30 μg) is listed as “+”.
On to Gentamicin, for which the “Resistance to Antibiotics” value in experiment [1] (10 μg) and in experiment [2] (10 μg) was “-” in each case.
With `CO[C@H]1/C=C/O[C@@]2(C)Oc3c(C)c(O)c4c(O)c(c(/C=N/N5CCN(C)CC5)c(O)c4c3C2=O)NC(=O)/C(C)=C\C=C\[C@H](C)[C@H](O)[C@@H](C)[C@@H](O)[C@@H](C)[C@H](OC(C)=O)[C@@H]1C` [Rifampin], in experiment [2] (5 μg), the “Resistance to Antibiotics” value is “+”.

Values taken from patent US4582822A, “Antibiotic A80190, pharmaceutical compositions containing same and method of use” (Eli Lilly and Company, priority 1984, dated 1986).
